Measurements reported in ChEMBL document CHEMBL4376864, “Binding Loop Substitutions in the Cyclic Peptide SFTI-1 Generate Potent and Selective Chymase Inhibitors” (J Med Chem, 2020).
Bridge positions count the residues as written; N and C are the ends. Square brackets hold non-standard residues; d marks the D form. Peptide text beside a SMILES is read from it. Phe(4-Cl) = N[C@@H](Cc1ccc(Cl)cc1)C(=O)O; Phe(4-I) = N[C@@H](Cc1ccc(I)cc1)C(=O)O; Phe(4-Me) = Cc1ccc(C[C@H](N)C(=O)O)cc1

Tests used:
Cathepsin G = target: T1, Cathepsin G (Homo sapiens, UniProt P08311); test: Inhibition of human cathepsin G using Suc-AAPF-MCA as substrate at pH 7.2 and 298 K measured every 60 secs for 600 secs
T1 sequence (P08311 whole entry): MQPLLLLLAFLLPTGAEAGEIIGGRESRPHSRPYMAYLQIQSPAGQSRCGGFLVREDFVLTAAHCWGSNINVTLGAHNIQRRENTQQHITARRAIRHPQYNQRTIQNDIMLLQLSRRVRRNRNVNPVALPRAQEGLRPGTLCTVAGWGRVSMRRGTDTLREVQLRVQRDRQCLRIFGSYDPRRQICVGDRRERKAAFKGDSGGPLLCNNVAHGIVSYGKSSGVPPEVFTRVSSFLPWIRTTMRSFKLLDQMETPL

Chymotrypsin = Chymotrypsin (Homo sapiens, UniProt Q99895+P17538+P40313+Q6GPI1); test: Inhibition of human chymotrypsin using Suc-AAPF-MCA as substrate at pH 8 and 298 K measured every 60 secs for 600 secs; assay type: protein assay
Homo sapiens [1] = species: Homo sapiens; test: Selectivity index, ratio of Ki for human chymotrypsin using Suc-AAPF-MCA as substrate to Ki for recombinant human chymase expressed in Pichia pastoris X-33 cells using NleTDY-pNA as substrate
Homo sapiens [2] = species: Homo sapiens; test: Selectivity index, ratio of Ki for human cathepsin G using Suc-AAPF-MCA as substrate to Ki for recombinant human chymase expressed in Pichia pastoris X-33 cells using NleTDY-pNA as substrate
Chymase [3] = target: T2, Chymase (Homo sapiens, UniProt P23946); test: Inhibition of recombinant human chymase expressed in Pichia pastoris X-33 cells using NleTDY-pNA as substrate assessed as cleavage of pNA at pH 7.2 and 298 K by spectrophotometry analysis
T2 sequence (P23946 whole entry): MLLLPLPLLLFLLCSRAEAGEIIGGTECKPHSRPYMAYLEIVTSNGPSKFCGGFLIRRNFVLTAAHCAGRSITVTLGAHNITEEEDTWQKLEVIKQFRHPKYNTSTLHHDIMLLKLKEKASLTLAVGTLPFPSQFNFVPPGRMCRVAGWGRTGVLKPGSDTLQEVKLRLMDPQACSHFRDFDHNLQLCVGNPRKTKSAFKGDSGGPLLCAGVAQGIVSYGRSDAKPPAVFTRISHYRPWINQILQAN

[4] = Inhibition of human cationic trypsin using Boc-VPR-MCA as substrate at pH 8 and 298 K measured every 60 secs for 600 secs
Prothrombin = Prothrombin (Homo sapiens, UniProt P00734); test: Inhibition of human thrombin using Boc-VPR-MCA as substrate at pH 8 and 298 K measured every 60 secs for 600 secs
Kallikrein-7 = Kallikrein-7 (Homo sapiens, UniProt P49862); test: Inhibition of recombinant human KLK7 expressed in Pichia pastoris X-33 using KHLY-pNA as substrate at pH 8 and 298 K measured every 60 secs for 600 secs
Kallikrein-7, sequence (P49862 whole entry): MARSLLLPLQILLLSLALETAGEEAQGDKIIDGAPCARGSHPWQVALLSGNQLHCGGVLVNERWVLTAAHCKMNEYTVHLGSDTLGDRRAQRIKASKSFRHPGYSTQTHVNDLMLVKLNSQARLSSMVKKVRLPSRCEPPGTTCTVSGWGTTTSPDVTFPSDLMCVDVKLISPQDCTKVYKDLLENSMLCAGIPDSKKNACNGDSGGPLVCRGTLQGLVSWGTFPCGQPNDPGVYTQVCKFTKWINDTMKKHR

Coagulation factor XII = target: T3, Coagulation factor XII (Homo sapiens, UniProt P00748); test: Inhibition of human coagulation factor 12a using Ac-QRFR-pNA as substrate at pH 8 and 298 K measured every 60 secs for 600 secs
T3 sequence (P00748 whole entry): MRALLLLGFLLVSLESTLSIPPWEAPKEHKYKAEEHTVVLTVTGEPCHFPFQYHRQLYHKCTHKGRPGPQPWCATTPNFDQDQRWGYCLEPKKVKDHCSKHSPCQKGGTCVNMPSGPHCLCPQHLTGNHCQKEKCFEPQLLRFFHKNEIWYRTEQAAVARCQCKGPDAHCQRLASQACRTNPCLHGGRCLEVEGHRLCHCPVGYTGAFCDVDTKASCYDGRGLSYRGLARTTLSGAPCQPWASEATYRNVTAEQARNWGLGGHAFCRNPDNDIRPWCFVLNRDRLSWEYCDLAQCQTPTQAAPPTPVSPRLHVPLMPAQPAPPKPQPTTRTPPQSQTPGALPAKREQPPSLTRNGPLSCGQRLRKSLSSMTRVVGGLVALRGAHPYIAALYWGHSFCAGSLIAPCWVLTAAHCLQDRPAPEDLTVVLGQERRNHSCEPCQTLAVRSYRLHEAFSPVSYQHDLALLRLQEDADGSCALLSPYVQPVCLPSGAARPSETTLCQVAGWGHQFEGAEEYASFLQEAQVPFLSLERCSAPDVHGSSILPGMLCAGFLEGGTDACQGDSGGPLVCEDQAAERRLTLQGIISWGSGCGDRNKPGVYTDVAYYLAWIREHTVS

Neutrophil elastase = target: T4, Neutrophil elastase (Homo sapiens, UniProt P08246); test: Inhibition of human neutrophil elastase using MeOSuc-AAPV-MCA as substrate at pH 7.2 and 298 K measured every 60 secs for 600 secs
T4 sequence (P08246 whole entry): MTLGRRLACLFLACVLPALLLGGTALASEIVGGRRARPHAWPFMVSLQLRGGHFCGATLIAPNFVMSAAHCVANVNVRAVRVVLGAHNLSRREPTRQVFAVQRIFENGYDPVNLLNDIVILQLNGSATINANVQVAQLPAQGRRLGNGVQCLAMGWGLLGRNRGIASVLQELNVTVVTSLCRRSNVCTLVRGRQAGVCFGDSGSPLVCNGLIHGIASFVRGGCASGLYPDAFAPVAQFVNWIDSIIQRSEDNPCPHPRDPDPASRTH

Chymase [5] = target: T2, Chymase; test: Inhibition of recombinant human chymase expressed in Pichia pastoris X-33 cells assessed as decrease in angiotensin 1 cleavage to angiotensin 2 incubated for 120 mins at 298 K by UPLC-MS analysis

SMILES	Ki (Cathepsin G)	Ki (Chymotrypsin)	Ratio Ki (Homo sapiens [1])	Ratio Ki (Homo sapiens [2])	Ki (Chymase [3])	IC50 [4]	IC50 (Prothrombin)	IC50 (Kallikrein-7)	IC50 (Coagulation factor XII)	IC50 (Neutrophil elastase)	IC50 (Chymase [5])	IC50 (Chymotrypsin)
N=C(N)NCCC[C@@H]1NC(=O)CNC(=O)[C@H](CC(=O)O)NC(=O)[C@@H]2CCCN2C(=O)[C@H](Cc2ccccc2)NC(=O)[C@@H]2CSSC[C@H](NC1=O)C(=O)N[C@@H](CCC(N)=O)C(=O)N[C@@H](Cc1ccc(O)cc1)C(=O)N[C@@H](CO)C(=O)N[C@@H](CCC(=O)O)C(=O)N1CCC[C@H]1C(=O)N1CCC[C@H]1C(=O)N[C@@H](CCC(=O)O)C(=O)N2 (cyclo(CFPDGRCQYSEPPE); disulfide 1-7)	0.054 µM	2.9 µM	440	8.2	0.0066 µM							
N=C(N)NCCC[C@@H]1NC(=O)CNC(=O)[C@H](CC(=O)O)NC(=O)[C@@H]2CCCN2C(=O)[C@H](Cc2ccccc2)NC(=O)[C@@H]2CSSC[C@H](NC1=O)C(=O)N[C@@H](CCC(N)=O)C(=O)N[C@@H](Cc1ccc(Cl)cc1)C(=O)N[C@@H](CO)C(=O)N[C@@H](CCC(=O)O)C(=O)N1CCC[C@H]1C(=O)N1CCC[C@H]1C(=O)N[C@@H](CCC(=O)O)C(=O)N2 (cyclo(CFPDGRCQ[Phe(4-Cl)]SEPPE); disulfide 1-7)	0.15 µM	0.33 µM		83	0.0018 µM	> 10 µM	> 10 µM	> 10 µM	> 10 µM	> 10 µM	0.033 µM	
N=C(N)NCCC[C@@H]1NC(=O)CNC(=O)[C@H](CC(=O)O)NC(=O)[C@@H]2CCCN2C(=O)[C@H](Cc2ccccc2)NC(=O)[C@@H]2CSSC[C@H](NC1=O)C(=O)N[C@@H](CCC(N)=O)C(=O)N[C@@H](Cc1ccc(I)cc1)C(=O)N[C@@H](CO)C(=O)N[C@@H](CCC(=O)O)C(=O)N1CCC[C@H]1C(=O)N1CCC[C@H]1C(=O)N[C@@H](CCC(=O)O)C(=O)N2 (cyclo(CFPDGRCQ[Phe(4-I)]SEPPE); disulfide 1-7)	1.2 µM				0.019 µM	> 10 µM	> 10 µM	> 10 µM	> 10 µM	> 10 µM	0.29 µM	> 10 µM
Cc1ccc(C[C@@H]2NC(=O)[C@H](CCC(N)=O)NC(=O)[C@@H]3CSSC[C@H](NC(=O)[C@H](CCC(=O)O)NC(=O)[C@@H]4CCCN4C(=O)[C@@H]4CCCN4C(=O)[C@H](CCC(=O)O)NC(=O)[C@H](CO)NC2=O)C(=O)N[C@@H](Cc2ccccc2)C(=O)N2CCC[C@H]2C(=O)N[C@@H](CC(=O)O)C(=O)NCC(=O)N[C@@H](CCCNC(=N)N)C(=O)N3)cc1 (cyclo(CFPDGRCQ[Phe(4-Me)]SEPPE); disulfide 1-7)	0.16 µM	1.5 µM	180	72 to 80	0.0022 µM	> 10 µM	> 10 µM	> 10 µM	> 10 µM	> 10 µM		
